This is an account of results in PMC11380953, “Multivalent, calcium-independent binding of surfactant protein A and D to sulfated glycosaminoglycans of the alveolar epithelial glycocalyx” (American Journal of Physiology - Lung Cellular and …, 2024).

In assay [1] the test system is human SP-A. On the set-up: method as in Haagsman et al.; [18]. Conditions: ref Haagsman et al., [18]; cited from earlier work.
For another assay, the system named is recombinant human SP-D. On the set-up: method as in van Eijk et al.; [42]. Conditions: ref van Eijk et al., [42], read-out: IC50 mean ± SE; cited from earlier work.
Assay [2] concerns the target T1, rhSP-D (human recombinant SP-D) (Homo sapiens, UniProt P35247).
T1 construct: host or cells: CHO cells
T1 sequence (P35247 21-375): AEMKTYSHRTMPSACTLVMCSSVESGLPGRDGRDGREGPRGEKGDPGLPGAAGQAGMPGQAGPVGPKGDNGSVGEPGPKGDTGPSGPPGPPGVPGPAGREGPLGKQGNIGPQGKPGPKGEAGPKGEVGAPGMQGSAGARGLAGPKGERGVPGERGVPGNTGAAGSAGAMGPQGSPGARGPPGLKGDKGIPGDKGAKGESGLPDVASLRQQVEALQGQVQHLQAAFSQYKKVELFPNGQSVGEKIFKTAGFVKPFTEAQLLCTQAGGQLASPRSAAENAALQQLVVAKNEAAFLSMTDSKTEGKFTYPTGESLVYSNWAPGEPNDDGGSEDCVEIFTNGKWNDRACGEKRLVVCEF
Description: Microscale thermophoresis (MST) binding to rhSP-D. Conditions: apparent KD at protein 9 nM, 25°C, read-out: KD (MST Measurements) ±Kd confidence. As for the experimental part: (§1) Human-isolated and recombinant proteins were labeled using the Monolith Protein Labeling Kit RED-NHS according to the manufacturer’s instructions. This kit reagent reacts with lysine residues present in the sequence of the protein, as the dye carries a reactive NHS-ester group. Briefly, as all the proteins were in a Tris buffer solution, the buffer solution was exchanged to a HEPES-based buffer with the A-Column provided in the kit. Then, 10 µM solution of protein was incubated with a threefold excess of dye in 100 µL for 30 min at room temperature protected from light. The labeled protein was separated from the free dye using the B-Column provided in the kit. The concentration of the labeled protein {c(M) = [A205 − (A650 × 0.19)]/[31 × MWprotein]) and the degree of labeling [DOL = A650/(195.000 M^−1cm^−1 × c(M)] were calculated according to the manufacturer’s instruction, measuring absorption at 205 nm (for the protein) and 650 nm (for the dye).
(§2) Thermophoresis is the phenomenon of movement of particles along a temperature gradient. Solvated molecules move from higher to lower temperature. This movement or depletion of molecules from the heat is quantified by the Soret coefficient ST: Chot/Ccold = exp (−STΔT). The depletion of molecules depends on the interface between molecule and solvent. Therefore, thermophoresis monitors changes in size, charge, and solvation entropy of molecules. In this regard, the thermophoresis or movement of a protein is different from a protein-ligand complex ([35]). Microscale or miniaturized thermophoresis allows to monitor molecular interaction in only a few microliters. For this method, the fluorescently labeled protein is mixed with a decreasing concentration of a ligand in 16 glass capillaries. The initial fluorescence is measured (Fcold), then an infrared (IR) laser beam is switched on and focused on the center of the first capillary, where the temperature gradient is created from the center to the walls of the capillary. At the same time, a dichroic mirror allows fluorescence from the labeled protein to be monitored (Fhot). The rate of fluorescence change is related to the amount of protein-ligand complex form, which depends on the ligand concentration, due to changes in size, charge, or hydration shell of the protein-ligand complex. The dissociation constant KD is calculated from the binding curve derived by plotting the normalized fluorescence (FNorm) at a given time after the start of the thermophoresis against the respective ligand concentration ([33], [34], [36]).
(§3) Samples were measured in a Monolith NT.115, using Premium Capillaries (MO-K025) and Monolith Protein labeling kit RED-NHS (MO-L011) all from NanoTemper Technologies (Munich, Germany). Solutions of a 3X concentrated MST buffer (15 mM Tris, 300 mM NaCl, 0.3% Tween 20, 15 mM CaCl2, pH 7.4), sugars (270 mM) or GAG (30 µM) solution, and protein solution (27 nM) were prepared separately. When a different concentration was used, a threefold concentration of the solution was prepared. Afterward, sugars and GAG solutions were diluted 1:2 with water in a series of 16 steps. For the measurement, 3 µL of each prepared component (3 µL MST buffer, 3 µL GAG solution, and 3 µL labeled protein) was mixed, centrifuged shortly to eliminate precipitates, and loaded into a glass capillary. The final concentrations of the sugars were thus between 90 –and 0.00275 mM or GAGs 10 and 0.000305 µM for GAGs, respectively. The 16 capillaries were loaded in the Monolith NT.115 and measurements were performed with a 40% LED power and medium MST power at 25°C.
(§4) Every set of 16 capillaries was prepared in 3–6 replicates (technical replicates) and measured. The replicate measures of every capillary were plotted against concentration and outliers were excluded, using the MO Affinity Analysis 3 v01 software (NanoTemper Technologies, Munich, Germany). […]

Assay [3] deals with human SP-A. Details: method as in Haurum et al.; [41]. Conditions: ref Haurum et al., [41], read-out: IC50 mean ±SD; cited from earlier work.
A further assay deals with human SP-D. On the set-up: method as in Lu et al.; [19]. Conditions: ref Lu et al., [19]; cited from earlier work.
Assay [4] has as its target T2, hSP-A (human SP-A, isolated from BAL of PAP patient) (Homo sapiens, UniProt Q8IWL1+Q8IWL2).
T2 construct: Human PAP patient, BAL isolated; from tissue; host or cells: bronchoalveolar lavage fluid of a patient with pulmonary alveolar proteinosis
The experiment in a line: Microscale thermophoresis (MST) binding to hSP-A. As to conditions: for Kd: hSP-A, apparent KD at protein 9 nM, 25°C, read-out: KD (MST Measurements) ±Kd confidence. As for the experimental part:
as §1, §2, §3, §4
In general terms: Microscale thermophoresis detects binding through changes in fluorescence in a small temperature gradient.

Assay [5] has as its system recombinant construct containing the N-terminal tagged fusion protein +neck and CRD of human SP-D. Details: method as in Crouch et al. 2006 [47]. Conditions: ref Crouch et al. 2006 [47], read-out: I50 mean ± SE; cited from earlier work.

T2 sequence (Q8IWL2 21-248): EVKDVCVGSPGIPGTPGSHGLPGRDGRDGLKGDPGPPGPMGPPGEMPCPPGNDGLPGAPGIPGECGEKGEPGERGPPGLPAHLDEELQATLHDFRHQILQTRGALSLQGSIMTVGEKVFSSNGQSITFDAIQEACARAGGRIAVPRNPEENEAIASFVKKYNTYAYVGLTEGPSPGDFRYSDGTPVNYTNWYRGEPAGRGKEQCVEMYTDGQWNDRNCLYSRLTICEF
T2 sequence (Q8IWL1 21-248): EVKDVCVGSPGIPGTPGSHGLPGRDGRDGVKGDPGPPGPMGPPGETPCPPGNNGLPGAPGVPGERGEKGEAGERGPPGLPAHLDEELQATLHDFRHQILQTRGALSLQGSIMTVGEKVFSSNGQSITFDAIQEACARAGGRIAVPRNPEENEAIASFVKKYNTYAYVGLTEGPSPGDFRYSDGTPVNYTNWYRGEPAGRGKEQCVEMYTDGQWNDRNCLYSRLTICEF

For `C[C@H](O)[C@@H](O)[C@@H](O)[C@H](O)C=O` [Fuc, L-fucose], the “Amount of SP-A bound” value in the assay on human SP-A [1] was 100%. The IC50 with recombinant human SP-D is 4.4 ± 0.1 mM; in the assay with human SP-A [3] it was 22 ± 1 mM; in the assay with human SP-D, 6.5 mM. In addition, the results for the Kd in assay [2] and in assay [4] were 0.37 mM and 4.07 mM, respectively.

With `O=C[C@H](O)[C@@H](O)[C@@H](O)[C@H](O)CO` [Gal, D(+)-galactose], in the assay with human SP-A [1], the “Amount of SP-A bound” value was 100%. For the same molecule, the IC50 in the assay with recombinant human SP-D is 7.9 ± 3.8 mM; in the assay on human SP-D, 22 mM; in assay [5], 10 ± 2 mM. Further, the Kd in assay [2] was 0.82 mM; in assay [4], 1.94 mM. The “binding of hSP-A to sugar, calcium dependence” value in assay [4] (MST, 0-10 mM calcium, 0-20 mM EDTA (Fig. 1D, E)) is listed as “only seen in the presence of calcium”.

Take `CC(=O)N[C@H]1C(O)O[C@H](CO)[C@H](O)[C@@H]1O` (stereo partly drawn) [GalNAc, N-acetyl-D-galactosamine]: in the assay with human SP-A [1], the “Amount of SP-A bound” value is 7%. In addition, the Kd is 0.39 mM in assay [2] and 7.27 mM in assay [4].

For the molecule `OC[C@@H]1OC(O)[C@@H](O)[C@H](O)[C@H]1O` (stereo partly drawn) [Glc, L(−)-glucose], in the assay on human SP-A [1], the “Amount of SP-A bound” value was 100%. The IC50 in the assay on recombinant human SP-D was 4 ± 1 mM; in the assay on human SP-A [3] it was 30 ± 1 mM; in the assay with human SP-D, 9.6 mM; in assay [5] it was 4.1 ± 0.9 mM. Besides, the Kd in assay [2] amounted to 0.12 mM; in assay [4] it was 1.39 mM.

In the case of `O=C[C@H](O)[C@@H](O)[C@H](O)[C@H](O)C(=O)O` [GlcAc, D-glucuronic acid], the results for the Kd in assay [2] and in assay [4] were 0.005 mM and 0.09 mM, respectively.

For `CC(=O)N[C@@H]1[C@@H](O)[C@H](O)[C@@H](CO)O[C@@H]1O` [GlcNAc, N-acetyl-D-glucosamine], in the assay with human SP-A [1], the “Amount of SP-A bound” value is 2%. Further, the IC50 in the assay on recombinant human SP-D is 13.5 ± 4.5 mM; in the assay with human SP-D, 28.5 mM; in assay [5], 14 ± 2 mM. The Kd in assay [2] is 0.13 mM; in assay [4] it was 0.16 mM.

Turning to `OC[C@H]1O[C@H](O[C@H]2[C@H](O)[C@@H](O)[C@H](O)O[C@@H]2CO)[C@H](O)[C@@H](O)[C@@H]1O` [Maltose, D(+)-maltose], the IC50 is 4.1 ± 0.9 mM in the assay on recombinant human SP-D, 23 ± 5 mM with human SP-A [3], 5.1 mM in the assay on human SP-D and 2.7 ± 0.4 mM in assay [5]. Further, the Kd in assay [2] came out at 0.45 mM; in assay [4], 0.03 mM.

With `OC[C@H]1OC(O)[C@@H](O)[C@@H](O)[C@@H]1O` (stereo partly drawn) [Man, D(+)-mannose], in the assay with human SP-A [1], the “Amount of SP-A bound” value is 95 ± 10%. The IC50 in the assay with recombinant human SP-D was 2.9 ± 0.4 mM; in the assay with human SP-A [3], 39 ± 3 mM; with human SP-D it was 7.5 mM; in assay [5], 5.3 ± 0.5 mM. The Kd in assay [2] amounted to 0.02 mM; in assay [4] it was 0.14 mM.

On to `CC(=O)N[C@@H]1C(O)O[C@H](CO)[C@@H](O)[C@@H]1O` (stereo partly drawn) [ManNAc, N-acetyl-D-mannosamine monohydrate], for which the values for the IC50 (with recombinant human SP-D; in the assay with human SP-A [3]; in assay [5]) were 1.8 ± 0.3 mM, 8 ± 1 mM and 2.1 ± 0.4 mM, respectively. Further, the Kd came to 5.39 mM in assay [2] and 0.06 mM in assay [4].

For `CC(=O)N[C@H]1[C@H]([C@H](O)[C@H](O)CO)OC(O)(C(=O)O)C[C@@H]1O` (stereo partly drawn) [Neu5Ac, N-acetyl-neuraminic acid], the Kd in assay [2] came to 0.27 mM; in assay [4] it was 0.21 mM.
